This is an account of results in paper PMC11358156 (Nature Cardiovascular Research, 2024).

For one test, the target named is T1, β-cardiac myosin (β-MHC) (Bos taurus, UniProt Q9BE39).
T1 construct: gene MYH7; motor domain (MD) in the pre-powerstroke state
Put plainly: co-crystal structure at […] Å with aficamten and vanadate. It is filed as binding.

For test [1], the target named is T2, fast skeletal myosin MYH1 (Oryctolagus cuniculus, UniProt A0A5F9CQ93).
T2 construct: with sarcomere proteins (actin, troponin, tropomyosin) of the myofibril
T2 sequence (P02602 2-192): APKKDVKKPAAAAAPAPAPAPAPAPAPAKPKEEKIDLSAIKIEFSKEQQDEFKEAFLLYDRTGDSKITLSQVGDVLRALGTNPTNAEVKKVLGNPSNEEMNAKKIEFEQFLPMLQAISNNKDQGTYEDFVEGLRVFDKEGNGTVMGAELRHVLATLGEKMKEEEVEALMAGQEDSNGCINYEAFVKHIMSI
T2 sequence (P02608 2-170, further chain): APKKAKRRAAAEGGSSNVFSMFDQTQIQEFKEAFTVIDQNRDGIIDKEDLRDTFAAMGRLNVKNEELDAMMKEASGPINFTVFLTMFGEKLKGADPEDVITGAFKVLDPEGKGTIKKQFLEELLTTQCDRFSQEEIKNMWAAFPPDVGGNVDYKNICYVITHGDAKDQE
T2 sequence (A0A5F9CQ93 entry or part of it): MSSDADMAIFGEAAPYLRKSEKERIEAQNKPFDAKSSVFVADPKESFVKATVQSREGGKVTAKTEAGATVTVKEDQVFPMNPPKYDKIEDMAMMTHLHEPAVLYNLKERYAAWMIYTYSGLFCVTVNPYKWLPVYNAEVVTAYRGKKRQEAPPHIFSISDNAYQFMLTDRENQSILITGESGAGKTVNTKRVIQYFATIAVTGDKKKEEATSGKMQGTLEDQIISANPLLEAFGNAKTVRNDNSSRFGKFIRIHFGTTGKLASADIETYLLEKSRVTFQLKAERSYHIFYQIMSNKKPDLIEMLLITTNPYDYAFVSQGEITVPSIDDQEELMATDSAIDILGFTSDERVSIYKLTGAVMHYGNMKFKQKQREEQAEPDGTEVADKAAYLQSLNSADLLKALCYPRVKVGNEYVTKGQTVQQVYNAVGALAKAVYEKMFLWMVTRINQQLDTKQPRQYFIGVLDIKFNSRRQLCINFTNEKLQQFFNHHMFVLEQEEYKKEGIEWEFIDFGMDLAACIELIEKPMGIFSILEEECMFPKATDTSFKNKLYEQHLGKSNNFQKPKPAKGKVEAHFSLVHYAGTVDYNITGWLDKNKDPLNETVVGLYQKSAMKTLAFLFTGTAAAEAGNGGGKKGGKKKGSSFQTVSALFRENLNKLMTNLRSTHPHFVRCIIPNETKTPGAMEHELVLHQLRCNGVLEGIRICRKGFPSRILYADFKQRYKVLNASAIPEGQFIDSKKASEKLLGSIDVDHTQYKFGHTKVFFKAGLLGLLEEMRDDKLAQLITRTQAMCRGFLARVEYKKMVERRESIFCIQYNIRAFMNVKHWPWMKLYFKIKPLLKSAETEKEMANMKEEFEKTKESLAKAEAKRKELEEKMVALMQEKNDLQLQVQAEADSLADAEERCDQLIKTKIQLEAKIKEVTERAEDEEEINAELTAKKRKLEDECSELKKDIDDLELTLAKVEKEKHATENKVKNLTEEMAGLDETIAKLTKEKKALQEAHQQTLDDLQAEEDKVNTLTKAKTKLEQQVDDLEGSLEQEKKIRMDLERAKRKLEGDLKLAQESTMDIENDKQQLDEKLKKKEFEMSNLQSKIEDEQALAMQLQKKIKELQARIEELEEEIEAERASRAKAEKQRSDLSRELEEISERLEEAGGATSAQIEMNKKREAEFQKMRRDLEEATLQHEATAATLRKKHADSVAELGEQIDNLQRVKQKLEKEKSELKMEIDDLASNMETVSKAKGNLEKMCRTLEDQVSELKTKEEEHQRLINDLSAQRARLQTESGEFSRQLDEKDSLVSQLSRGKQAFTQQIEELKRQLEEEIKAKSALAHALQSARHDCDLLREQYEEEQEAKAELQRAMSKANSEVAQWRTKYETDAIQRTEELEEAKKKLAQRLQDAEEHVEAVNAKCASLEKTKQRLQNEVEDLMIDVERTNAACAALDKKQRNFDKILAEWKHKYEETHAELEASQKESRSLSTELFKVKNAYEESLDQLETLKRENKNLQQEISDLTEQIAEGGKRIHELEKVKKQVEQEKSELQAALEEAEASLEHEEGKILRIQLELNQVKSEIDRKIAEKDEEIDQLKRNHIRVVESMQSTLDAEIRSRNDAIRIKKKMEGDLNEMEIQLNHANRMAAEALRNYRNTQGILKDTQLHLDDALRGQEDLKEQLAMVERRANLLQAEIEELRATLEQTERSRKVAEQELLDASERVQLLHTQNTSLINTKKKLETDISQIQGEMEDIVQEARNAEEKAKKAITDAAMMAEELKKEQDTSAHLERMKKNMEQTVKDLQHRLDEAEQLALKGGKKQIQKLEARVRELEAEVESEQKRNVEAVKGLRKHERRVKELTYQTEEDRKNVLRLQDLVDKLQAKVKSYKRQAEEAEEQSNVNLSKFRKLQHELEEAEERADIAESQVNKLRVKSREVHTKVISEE
Put plainly: myofibril ATPase assay. It is filed as biochemical.

Each structure is given as a SMILES string.

T1 sequence (Q9BE39 1-782): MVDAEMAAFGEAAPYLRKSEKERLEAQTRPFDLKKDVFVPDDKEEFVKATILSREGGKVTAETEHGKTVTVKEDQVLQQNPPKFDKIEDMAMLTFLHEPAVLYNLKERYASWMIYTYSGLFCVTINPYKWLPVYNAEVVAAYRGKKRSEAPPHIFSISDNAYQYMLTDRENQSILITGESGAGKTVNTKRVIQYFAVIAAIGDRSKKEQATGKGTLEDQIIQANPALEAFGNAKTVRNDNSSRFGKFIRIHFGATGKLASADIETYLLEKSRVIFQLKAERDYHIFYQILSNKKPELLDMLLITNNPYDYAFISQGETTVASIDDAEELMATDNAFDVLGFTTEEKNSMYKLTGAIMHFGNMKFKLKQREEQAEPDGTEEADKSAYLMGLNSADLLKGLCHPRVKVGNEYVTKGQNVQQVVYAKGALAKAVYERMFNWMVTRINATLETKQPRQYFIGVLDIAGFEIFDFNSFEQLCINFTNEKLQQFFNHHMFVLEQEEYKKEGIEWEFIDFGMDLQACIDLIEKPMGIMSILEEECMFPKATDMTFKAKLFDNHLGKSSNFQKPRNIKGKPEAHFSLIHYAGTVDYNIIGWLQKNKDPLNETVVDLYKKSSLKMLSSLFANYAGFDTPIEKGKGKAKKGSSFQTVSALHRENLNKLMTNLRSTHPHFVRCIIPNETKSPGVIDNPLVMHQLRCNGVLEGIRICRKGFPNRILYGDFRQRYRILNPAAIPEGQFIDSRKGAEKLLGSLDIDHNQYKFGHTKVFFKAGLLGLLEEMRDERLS

Turning to `Nc1ncnc2c1ncn2[C@@H]1O[C@H](COP(=O)(O)OP(=O)(O)O)[C@@H](O)[C@H]1O` [ADP], the “co-crystal structure at 2.33 Å with aficamten and vanadate” value at β-cardiac myosin (β-MHC) is “the upper inset displays ADP and Vanadate and the lower inset displays aficamten”. As for `CCc1nc(-c2ccc3c(c2)CC[C@H]3NC(=O)c2cnn(C)c2)no1` [aficamten], the IC50 in test [1] came to 6.52 µM.

Broadly, the IC50 is the concentration needed to halve the response being measured. A lower IC50 goes with greater potency.
